Assay results taken from ChEMBL document CHEMBL1938327, “Thiazolides as novel antiviral agents. 2. Inhibition of hepatitis C virus replication” (J Med Chem, 2011).

Test system: not listed separately
Test: Selectivity index, ratio of CC50 for human Ava5 cells to EC50 for HCV genotype 1b infected in human Ava5 cells
Settings: not given

Compared with `Cc1cnc(NC(=O)c2ccccc2O)s1`, `O=C(Nc1ncc([N+](=O)[O-])s1)c1ccccc1O` [TIZOXANIDE] is higher in “Ratio CC50/EC50” value: 11 for the first, 100 for the second.

Compared with `O=C(Nc1ccc([N+](=O)[O-])cc1Cl)c1cc(Cl)ccc1O` [NICLOSAMIDE], `O=C(Nc1cccc(F)c1)c1ccccc1O` is higher in “Ratio CC50/EC50” value: 16.2 for the first, 26 for the second.

First: CC(=O)Oc1c(C)cccc1C(=O)Nc1ncc(Cl)s1
Second: CC(=O)Oc1ccccc1C(=O)Nc1ncc(Cl)s1
The “Ratio CC50/EC50” value of the first is lower: 11 for the first, 16 for the second.

Going from `CS(=O)(=O)c1cnc([N-]C(=O)c2ccccc2O)s1.[Na+]` to `CS(=O)(=O)c1csc(NC(=O)c2ccccc2O)n1`, the “Ratio CC50/EC50” value rises from 29 to 170.

Going from `O=C(Nc1nc(-c2ccccc2)c(Br)s1)c1ccccc1O` to `C[S+]([O-])c1csc(NC(=O)c2ccccc2O)n1` (configuration not stated), the “Ratio CC50/EC50” value rises from 7.3 to 32.

Compared with `CC(=O)Oc1ccccc1C(=O)Nc1ncc([N+](=O)[O-])s1` [NITAZOXANIDE], `CC(=O)Oc1ccccc1C(=O)Nc1ncc(Br)s1` is lower in “Ratio CC50/EC50” value: 143 for the first, 3 for the second.

Going from `CC(=O)Oc1ccccc1C(=O)Nc1ncc(C(F)(F)F)s1` to `CC(=O)Oc1ccccc1C(=O)Nc1ccc(Br)cc1`, the “Ratio CC50/EC50” value rises from 0.9 to 1.3.

Going from `Cc1cccc(C(=O)Nc2ncc(Br)s2)c1O` to `O=C(Nc1cc(C(F)(F)F)cc(C(F)(F)F)c1)c1ccccc1O`, the “Ratio CC50/EC50” value falls from 11 to 1.1.

For `O=C(Nc1ncc([N+](=O)[O-])s1)c1cc(Cl)ccc1O`, the “Ratio CC50/EC50” value was over 50.

Test system: not listed separately
Test: Toxicity in po dosed dog
Type: organism-based, Canis lupus familiaris
Settings: in vivo

In the case of `Cc1cccc(C(=O)Nc2ncc(Br)s2)c1O`, the MTD is reported as under 25 mg/kg.

Test system: not listed separately
Test: Cytotoxicity against human Ava5 cells after 3 days by neutral red dye assay
Type: cell-based
Settings: not given

First: Cc1cnc(NC(=O)c2ccccc2O)s1
Second: O=C(Nc1ncc([N+](=O)[O-])s1)c1ccccc1O [TIZOXANIDE]
The CC50 at 72 h of the first is 3-fold higher: 45 µM for the first, 15 µM for the second.

Going from `O=C(Nc1ccc([N+](=O)[O-])cc1Cl)c1cc(Cl)ccc1O` [NICLOSAMIDE] to `O=C(Nc1ncc([N+](=O)[O-])s1)c1cc(Cl)ccc1O`, the CC50 at 72 h rises from 10 µM to over 100 µM.

Going from `CC(=O)Oc1c(C)cccc1C(=O)Nc1ncc(Cl)s1` to `CC(=O)Oc1ccccc1C(=O)Nc1ncc(Cl)s1`, the CC50 at 72 h falls from 12 µM to 4.3 µM (2.8-fold).

Compared with `CS(=O)(=O)c1cnc([N-]C(=O)c2ccccc2O)s1.[Na+]`, `CS(=O)(=O)c1csc(NC(=O)c2ccccc2O)n1` is 2-fold higher in CC50 at 72 h: 43 µM for the first, 85 µM for the second.

Going from `O=C(Nc1cccc(F)c1)c1ccccc1O` to `O=C(Nc1nc(-c2ccccc2)c(Br)s1)c1ccccc1O`, the CC50 at 72 h rises from 3.4 µM to 16 µM (4.7-fold).

First: CC(=O)Oc1ccccc1C(=O)Nc1ncc([N+](=O)[O-])s1 [NITAZOXANIDE]
Second: CC(=O)Oc1ccccc1C(=O)Nc1ncc(Br)s1
The CC50 at 72 h of the first is 2.9-fold higher: 35 µM for the first, 12 µM for the second.

Compared with `CC(=O)Oc1ccccc1C(=O)Nc1ncc(C(F)(F)F)s1`, `CC(=O)Oc1ccccc1C(=O)Nc1ccc(Br)cc1` is 2.8-fold lower in CC50 at 72 h: 1.7 µM for the first, 0.6 µM for the second.

Compared with `Cc1cccc(C(=O)Nc2ncc(Br)s2)c1O`, `C[S+]([O-])c1csc(NC(=O)c2ccccc2O)n1` (configuration not stated) is 4.2-fold higher in CC50 at 72 h: 15 µM for the first, 63 µM for the second.

Compound `O=C(Nc1cc(C(F)(F)F)cc(C(F)(F)F)c1)c1ccccc1O` has a CC50 at 72 h of 3.7 µM.

Test system: Hepatitis C virus
Test: Antiviral activity against HCV genotype 1b infected in Ava5 cells assessed as inhibition of viral replication after 3 days by blot hybridization analysis
Type: functional, organism-based, Hepacivirus hominis
Settings: Ava5, 72 h

Going from `Cc1cnc(NC(=O)c2ccccc2O)s1` to `O=C(Nc1ncc([N+](=O)[O-])s1)c1ccccc1O` [TIZOXANIDE], the EC50 falls from 4200 nM to 150 nM (28-fold).

Going from `O=C(Nc1ccc([N+](=O)[O-])cc1Cl)c1cc(Cl)ccc1O` [NICLOSAMIDE] to `O=C(Nc1ncc([N+](=O)[O-])s1)c1cc(Cl)ccc1O`, the EC50 rises from 160 nM to 2000 nM (12-fold). The first is the more potent here.

Going from `CC(=O)Oc1c(C)cccc1C(=O)Nc1ncc(Cl)s1` to `CC(=O)Oc1ccccc1C(=O)Nc1ncc(Cl)s1`, the EC50 falls from 590 nM to 230 nM (2.6-fold). The second is the more potent here.

Compared with `CS(=O)(=O)c1cnc([N-]C(=O)c2ccccc2O)s1.[Na+]`, `CS(=O)(=O)c1csc(NC(=O)c2ccccc2O)n1` is 3-fold lower in EC50: 1500 nM for the first, 500 nM for the second.

Going from `O=C(Nc1cccc(F)c1)c1ccccc1O` to `O=C(Nc1nc(-c2ccccc2)c(Br)s1)c1ccccc1O`, the EC50 rises from 130 nM to over 2200 nM.

First: CC(=O)Oc1ccccc1C(=O)Nc1ncc([N+](=O)[O-])s1 [NITAZOXANIDE]
Second: CC(=O)Oc1ccccc1C(=O)Nc1ncc(Br)s1
The EC50 of the first is 18-fold lower: 210 nM for the first, 3800 nM for the second.

First: CC(=O)Oc1ccccc1C(=O)Nc1ncc(C(F)(F)F)s1
Second: CC(=O)Oc1ccccc1C(=O)Nc1ccc(Br)cc1
The EC50 of the first is higher: over 4300 nM for the first, 450 nM for the second. The second is the more potent here.

`Cc1cccc(C(=O)Nc2ncc(Br)s2)c1O` and `C[S+]([O-])c1csc(NC(=O)c2ccccc2O)n1` (configuration not stated) cannot be ordered by EC50: over 1900 nM for the first, 2000 nM for the second.

With `O=C(Nc1cc(C(F)(F)F)cc(C(F)(F)F)c1)c1ccccc1O` the EC50 was 3500 nM.

First: Cc1cnc(NC(=O)c2ccccc2O)s1
Second: O=C(Nc1ncc([N+](=O)[O-])s1)c1ccccc1O [TIZOXANIDE]
The EC90 of the first is 17-fold higher: 14 µM for the first, 0.81 µM for the second.

First: O=C(Nc1ccc([N+](=O)[O-])cc1Cl)c1cc(Cl)ccc1O [NICLOSAMIDE]
Second: O=C(Nc1ncc([N+](=O)[O-])s1)c1cc(Cl)ccc1O
The EC90 of the first is 8.4-fold lower: 0.7 µM for the first, 5.9 µM for the second.

First: CC(=O)Oc1c(C)cccc1C(=O)Nc1ncc(Cl)s1
Second: CC(=O)Oc1ccccc1C(=O)Nc1ncc(Cl)s1
The EC90 of the first is 8.1-fold higher: 8.9 µM for the first, 1.1 µM for the second.

First: CS(=O)(=O)c1cnc([N-]C(=O)c2ccccc2O)s1.[Na+]
Second: CS(=O)(=O)c1csc(NC(=O)c2ccccc2O)n1
The EC90 of the first is 3.1-fold higher: 5.2 µM for the first, 1.7 µM for the second.

Compared with `O=C(Nc1cccc(F)c1)c1ccccc1O`, `O=C(Nc1nc(-c2ccccc2)c(Br)s1)c1ccccc1O` is higher in EC90: 0.83 µM for the first, over 7 µM for the second.

Compared with `CC(=O)Oc1ccccc1C(=O)Nc1ncc([N+](=O)[O-])s1` [NITAZOXANIDE], `CC(=O)Oc1ccccc1C(=O)Nc1ncc(Br)s1` is 12-fold higher in EC90: 0.93 µM for the first, 11 µM for the second.

Compared with `CC(=O)Oc1ccccc1C(=O)Nc1ncc(C(F)(F)F)s1`, `CC(=O)Oc1ccccc1C(=O)Nc1ccc(Br)cc1` is lower in EC90: over 8.2 µM for the first, 3.4 µM for the second.

Going from `Cc1cccc(C(=O)Nc2ncc(Br)s2)c1O` to `C[S+]([O-])c1csc(NC(=O)c2ccccc2O)n1` (configuration not stated), the EC90 falls from over 10 µM to 4.6 µM.

Compound `O=C(Nc1cc(C(F)(F)F)cc(C(F)(F)F)c1)c1ccccc1O` has an EC90 of 8.1 µM.

Test system: not listed separately
Test: Selectivity index, ratio of CC50 for human Huh7.5 cells to EC50 for HCV genotype 1a infected in human Huh7.5 cells
Parameters: species or system Huh-7
Settings: not given

`CC(=O)Oc1c(C)cccc1C(=O)Nc1ncc(Cl)s1` and `CC(=O)Oc1ccccc1C(=O)Nc1ncc(Cl)s1` are the same in “Ratio CC50/EC50” value: 14 for the first, 14 for the second.

Compared with `O=C(Nc1ncc([N+](=O)[O-])s1)c1ccccc1O` [TIZOXANIDE], `CC(=O)Oc1ccccc1C(=O)Nc1ncc([N+](=O)[O-])s1` [NITAZOXANIDE] is higher in “Ratio CC50/EC50” value: 56 for the first, 149 for the second.

With `CC(=O)Oc1ccccc1C(=O)Nc1ncc(Br)s1` the “Ratio CC50/EC50” value was 6.

Test system: not listed separately
Test: Cytotoxicity against human Huh7.5 cells after 3 days by neutral red dye assay
Type: cell-based, Huh-7
Settings: not given

Compared with `CC(=O)Oc1c(C)cccc1C(=O)Nc1ncc(Cl)s1`, `CC(=O)Oc1ccccc1C(=O)Nc1ncc(Cl)s1` is 2.5-fold lower in CC50 at 72 h: 14 µM for the first, 5.7 µM for the second.

First: O=C(Nc1ncc([N+](=O)[O-])s1)c1ccccc1O [TIZOXANIDE]
Second: CC(=O)Oc1ccccc1C(=O)Nc1ncc([N+](=O)[O-])s1 [NITAZOXANIDE]
The CC50 at 72 h of the first is 3.5-fold lower: 14 µM for the first, 49 µM for the second.

Going from `O=C(Nc1nc(-c2ccccc2)c(Br)s1)c1ccccc1O` to `CC(=O)Oc1ccccc1C(=O)Nc1ncc(Br)s1`, the CC50 at 72 h falls from 62 µM to 21 µM (3-fold).

First: CC(=O)Oc1ccccc1C(=O)Nc1ncc(C(F)(F)F)s1
Second: Cc1cccc(C(=O)Nc2ncc(Br)s2)c1O
The CC50 at 72 h of the first is 1.8-fold lower: 14 µM for the first, 25 µM for the second.

Test system: Hepatitis C virus
Test: Antiviral activity against HCV genotype 1a infected in Huh7.5 cells assessed as inhibition of viral replication after 3 days by blot hybridization analysis
Type: functional, organism-based, Hepacivirus hominis
Settings: subtype 1a, Huh7.5, 72 h

Compared with `CC(=O)Oc1c(C)cccc1C(=O)Nc1ncc(Cl)s1`, `CC(=O)Oc1ccccc1C(=O)Nc1ncc(Cl)s1` is 2.5-fold lower in EC50: 1000 nM for the first, 400 nM for the second. The second is the more potent here.

`O=C(Nc1ncc([N+](=O)[O-])s1)c1ccccc1O` [TIZOXANIDE] and `CC(=O)Oc1ccccc1C(=O)Nc1ncc([N+](=O)[O-])s1` [NITAZOXANIDE] are within 1.5-fold of each other in EC50: 250 nM for the first, 330 nM for the second.

Going from `O=C(Nc1nc(-c2ccccc2)c(Br)s1)c1ccccc1O` to `CC(=O)Oc1ccccc1C(=O)Nc1ncc(Br)s1`, the EC50 falls from over 10000 nM to 3300 nM. The second is the more potent here.

`CC(=O)Oc1ccccc1C(=O)Nc1ncc(C(F)(F)F)s1` and `Cc1cccc(C(=O)Nc2ncc(Br)s2)c1O` cannot be ordered by EC50: over 10000 nM for the first, over 10000 nM for the second.

Compared with `CC(=O)Oc1c(C)cccc1C(=O)Nc1ncc(Cl)s1`, `CC(=O)Oc1ccccc1C(=O)Nc1ncc(Cl)s1` is 2-fold lower in EC90: 3.8 µM for the first, 1.9 µM for the second.

`O=C(Nc1ncc([N+](=O)[O-])s1)c1ccccc1O` [TIZOXANIDE] and `CC(=O)Oc1ccccc1C(=O)Nc1ncc([N+](=O)[O-])s1` [NITAZOXANIDE] are within 1.5-fold of each other in EC90: 1 µM for the first, 1.1 µM for the second.

Going from `O=C(Nc1nc(-c2ccccc2)c(Br)s1)c1ccccc1O` to `CC(=O)Oc1ccccc1C(=O)Nc1ncc(Br)s1`, the EC90 falls from over 10 µM to 10 µM.

`CC(=O)Oc1ccccc1C(=O)Nc1ncc(C(F)(F)F)s1` and `Cc1cccc(C(=O)Nc2ncc(Br)s2)c1O` cannot be ordered by EC90: over 10 µM for the first, over 10 µM for the second.

Species: Rattus norvegicus
Test: Toxicity in rat
Type: organism-based
Settings: in vivo

In the case of `Cc1cccc(C(=O)Nc2ncc(Br)s2)c1O`, the Activity is reported as “Toxic”.

Test system: not listed separately
Test: Aqueous solubility of the compound
Type: physicochemical
Settings: buffer

In the case of `O=C(Nc1ccc([N+](=O)[O-])cc1Cl)c1cc(Cl)ccc1O` [NICLOSAMIDE], the solubility is reported as “soluble”.
For `CC(=O)Oc1ccccc1C(=O)Nc1ncc(C(F)(F)F)s1`, the solubility was “soluble”.
With `O=C(Nc1cc(C(F)(F)F)cc(C(F)(F)F)c1)c1ccccc1O` the solubility was “soluble”.
